Experimental data from patent US4857513A, “Diphosphonic acid compounds, processes for the preparation thereof and pharmaceutical composition comprising the same” (Fujisiwa Pharmaceutical Co., Ltd., priority 1986, dated 1989).
Counter-ions that a name gives are not always drawn.

Tested on: Neonatal calvaria (hPTH (1-34)-treated)
Test: Inhibition of hPTH (1-34)-stimulated bone resorption in cultured neonatal rat calvaria (calcium accumulation in medium at 6 days)
Type: cell-based, rat (Wistar)
Details: 144 h, hPTH (1-34) 1×10^-8 M, 37° C.; for inhibition at 0.1 µM: Dose 1 × 10^-7 M; for inhibition at 1 µM: Dose 1 × 10^-6 M
Experimental: Neonatal calvaria were dissected aseptically from 1-2 day old rat (Wistar), washed in Dulbecco's modified eagle's medium and divided along the sagittal suture. The calvaria halves were pooled and randomized in the different groups. The calvaria halves were cultured separately as free-floating bones in multi-well dishes containing a 2 ml of Dulbecco's modified eagle's medium, with 10% heat-inactivated (56° C. for 1 hr) fetal calf serum. Treatment of hPTH (1-34) (1×10^-8 M) and the Test Compound (1×10^-7 or 1×10^-6 M) was begun at zero time. All incubations were performed at 37° C., under an atmosphere of 95% air and 5% CO2 for 6 days. Bone resporption was determined by measuring the accumulation of calcium in the medium at 6 days. The concentration of total calcium in culture medium was measured by OCPC method with a spectrophotometer (Hitachi model U-3200, Tokyo, Japan).
As comparative data, similar tests were conducted using culture medium with hPTH (1×10^-8 M) only, and culture medium without both hPTH and Test Compound.
Test results were represented in terms of percentage of inhibition calculated by the following formula: [formula] CD : the concentration of total calcium in culture medium treated with both hPTH and Test Compound
CO : the concentration of total calcium in control culture medium without both hPTH and Test Compound
CP : the concentration of total calcium in culture medium treated with hPTH only

| Compound | inhibition at 0.1 µM [%] | inhibition at 1 µM [%] |
| --- | --- | --- |
| O=C(NC(P(=O)(O)O)P(=O)(O)O)c1cc2ccccc2s1 [Test Compound (i), Bis(tert-butylamine)salt of [(2-benzo[b]thiophenecarboxamido)methylene]bis(phosphonic acid)] | 45 | – |
| O=P(O)(O)C(C(=S)Nc1ccc(Cl)c(C(F)(F)F)c1)P(=O)(O)O [Test Compound (g), Disodium salt of [N-(4-chloro-3-trifluoromethylphenyl)thiocarbamoylmethylene]bis(phosphonicacid)] | – | 112 |
| O=P(O)(O)C(NS(=O)(=O)c1ccc(Cl)cc1)P(=O)(O)O [Test Compound (k), Disodium salt of [(4-chlorophenyl)sulfonylaminomethylene]bis(phosphonicacid)] | – | 71 |
| O=P(O)(O)C(C(=S)Nc1ccc(Cl)cc1)P(=O)(O)O [Test Compound (c), Tris(tert-butylamine)salt of [N-(4-chlorophenyl)thiocarbamoylmethylene]bis(phosphonic acid)] | – | 57 |
| O=C(NC(P(=O)(O)O)P(=O)(O)O)c1ccc2ccccc2n1 [Test Compound (j), Tris(tert-butylamine)salt of [(2-quinolinecarboxamido)methylene]bis(phosphonic acid)] | 46.9 | 53.8 |
| O=C(Nc1ccc(Cl)cc1)C(P(=O)(O)O)P(=O)(O)O [Test Compound (b), Tris(tert-butylamine) salt of [N-(4-chlorophenyl)carbamoylmethylene]bis(phosphonic acid)] | 46.6 | 56.9 |
| COc1ccc(NC(=S)C(P(=O)(O)O)P(=O)(O)O)cc1C(F)(F)F [Test Compound (h), Disodium salt of [N-(4-methoxy-3-trifluoromethylphenyl)thiocarbamoylmethylene]bis(phosphonic acid)] | – | 77.7 |
| CS(=O)(=O)Nc1cccc(NC(=S)C(P(=O)(O)O)P(=O)(O)O)c1 [Test Compound (l), Disodium salt of [N-(3-mesylaminophenyl)thiocarbamoylmethylene]bis(phosphonic acid)] | – | 52.4 |
| O=P(O)(O)C(C(=S)Nc1cc2ccccc2s1)P(=O)(O)O [Test Compound (d), Disodium salt of [N-(2-benzo[b]thienyl)thiocarbamoylmethylene]bis(phosphonic acid)] | – | 59.7 |
| O=P(O)(O)C(C(=S)Nc1ccc(C(F)(F)F)cc1)P(=O)(O)O [Test Compound (e), Disodium salt of [N-(4-trifluoromethylphenyl)thiocarbamoylmethylene]bis(phosphonic acid)] | – | 65.9 |
| O=P(O)(O)C(C(=S)Nc1ccccc1)P(=O)(O)O [Test Compound (a), Tris(tert-butylamine) salt of [N-(phenyl)thiocarbamoylmethylene]bis(phosphonic acid)] | 54.3 | 66.3 |
| O=P(O)(O)C(C(=S)Nc1cccc(C(F)(F)F)c1)P(=O)(O)O [Test Compound (f), Disodium salt of [N-(3-trifluoromethylphenyl)thiocarbamoylmethylene]bis(phosphonic acid)] | – | 68.9 |
